Results on four compounds are retold here after PMC10252989, “Significance of Astragaloside IV from the Roots of Astragalus mongholicus as an Acetylcholinesterase Inhibitor—From the Computational and Biomimetic Analyses to the In Vitro and In Vivo Studies of Safety” (International Journal of Molecular Sciences, 2023).

Data set [1] in a line: Biomimetic HPLC lipophilicity determination, IAM column. The data set is classed as physicochemical. As to conditions: for s (slope of Soczewiński-Wachtmeister equation): ACN-phosphate buffer pH 7.4; for logkw: ACN-phosphate buffer pH 7.4, retention factor extrapolated to pure water. An excerpt: (§1) To determine lipophilicity of the tested astragalosides, the biomimetic-High Performance Liquid Chromatography (HPLC) systems with a cholesterol-bound (CHOL) stationary phase as well as the Immobilized Artificial Membrane (IAM) column were used. These stationary phases have pseudomembrane properties and therefore are widely applied in chromatographic practice to determine lipophilicity of various groups of compounds, including newly synthesized ones.
(§2) Based on the Soczewiński–Wachtmeister Equation (1), the logarithms of retention factors extrapolated to pure water (logkw) values were calculated. These values can be considered as an alternative to the n-octanol/water partition coefficient recognized as the lipophilicity descriptor [31]. logk = logkw − sφ(1) where logk is the logarithm of the retention factor in the mixed effluent systems; φ is the volume fraction of organic modifier in the mobile phase; s is the slope characteristic of a given solute in the chromatographic system.
(§3) The Shimadzu Vp liquid chromatographic system (Shimadzu, Kyoto, Japan) equipped with an LC 10AT pump, an SPD 10A UV-Vis detector, an SCL 10A system controller, a CTO-10 AS chromatographic oven and a Rheodyne injector valve with a 20 µL loop was applied in the HPLC measurements.
(§4) The solutions of the isolated A IV as well as pharmacopoeial standards of A I–A III were prepared in methanol (Merck, Darmstadt, Germany; p.a.) at a concentration of 1 mg/mL. […] The optimization process of the chromatographic separation was made before the experiment. The flow rate of the mobile phases was established to be 1 mL/min and the temperature was set at 20 °C. The tested compounds were detected with UV light at λ = 203 nm.
(§5) The IAM.PC.DD2 column (IAM; 100 × 4.6 mm i.d., 10 µm; Regis Technologies, Morton Grove, IL, USA) and cholesterol-bonded (CHOL; Cosmosil; 75 × 2 mm i.d., 2.5 µm; Genore, Warsaw, Poland) were used as the stationary phase while the buffered solutions of acetonitrile (ACN) were used as mobile phases. In each measurement the composition of the mobile phases was: 0.3; 0.4; 0.5; 0.6 v/v ACN-buffer. The buffer was prepared from solutions of both Na2HPO4 (0.02 mol/dm^3) and citric acid (0.01 mol/dm^3).
(§6) The dead-time values were measured from the citric acid peaks. All the reported logarithms of the retention factors were measured three times.

A short description of data set [2]: Biomimetic HPLC lipophilicity determination, cholesterol-bound column. Type of data set: physicochemical. The note with it: CHOL column; for s (slope of Soczewiński-Wachtmeister equation): ACN-phosphate buffer pH 7.4; for logkw: ACN-phosphate buffer pH 7.4, retention factor extrapolated to pure water.
From the text: as §1, §2, §3, §4, §5, §6

In data set [3] the target is acetylcholinesterase (AChE) enzyme (Homo sapiens, UniProt P22303). The experiment in a line: TLC bioautography assay for inhibition of acetylcholinesterase. Type of data set: biochemical. The note with it: amount of compound per spot. The method, then: In this study, the reference compounds of astragalosides II (A II), III (A III) and IV (A IV) at different concentrations were injected into the normal phase TLC plate covered with silica gel. Each experiment was repeated three times and the average values of the obtained peak areas corresponding to different injections of pure astragalosides were taken for the calculation of IC50 values of the saponins. For the three astragalosides: II, III and IV the following calibration curve equations were obtained: y = 70,773,628.9063x − 62,644.2995 (R^2 = 0.9732), y = 33,106,972.8125x − 67,429.4097 (R^2 = 0.9771), and y = 48,308,195.3125x + 3538.3021 (R^2 = 0.9981), respectively.
Chain of acetylcholinesterase (AChE) enzyme (P22303 32-614): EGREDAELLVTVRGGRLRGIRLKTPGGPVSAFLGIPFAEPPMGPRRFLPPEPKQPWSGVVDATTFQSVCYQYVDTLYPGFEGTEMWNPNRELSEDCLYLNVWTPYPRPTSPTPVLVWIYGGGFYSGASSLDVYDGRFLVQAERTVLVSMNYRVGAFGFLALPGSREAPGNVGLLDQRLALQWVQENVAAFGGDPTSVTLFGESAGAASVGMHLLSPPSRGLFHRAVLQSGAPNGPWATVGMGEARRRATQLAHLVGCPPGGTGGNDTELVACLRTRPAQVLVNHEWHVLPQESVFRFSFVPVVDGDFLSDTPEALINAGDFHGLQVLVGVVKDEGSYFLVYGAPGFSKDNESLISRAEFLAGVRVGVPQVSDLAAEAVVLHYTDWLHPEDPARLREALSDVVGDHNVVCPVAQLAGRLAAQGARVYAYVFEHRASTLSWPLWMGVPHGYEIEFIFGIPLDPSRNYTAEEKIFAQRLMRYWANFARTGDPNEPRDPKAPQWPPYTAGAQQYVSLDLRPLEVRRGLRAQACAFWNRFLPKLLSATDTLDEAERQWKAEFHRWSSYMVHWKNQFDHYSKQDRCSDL
The TLC-bioautography method was used to determine the IC50 values of the tested saponins. Owing to the application of this technique, bright spots of active compounds were registered against the dark background. The TLC chromatogram was obtained on aluminium-covered normal phase TLC plates (Merck, Darmstadt, Germany, silica gel 60 F254).
To calculate the strength of the astragalosides, the IC50 values were determined for astragalosides II, III, and IV. For this purpose, 1 mg/mL solutions of all pure compounds were sprayed on the TLC plate using the Camag Linomat 5 (Muttenz, Switzerland) with the decreasing volumes in the range of 0.002–0.008 mg of compounds per spotevery 1 cm.
Later the TLC plate was subjected to the TLC-bioautography assay towards inhibitory properties against the AChE enzymeas described previously. Briefly, first the TLC plates were sprayed with asolution of 30 mg/20 mL of 1-naphtyl acetate. […] The chromatogram was analysed by the WinCats (v. 1.4, Camag) program and the peak areas of every spot were determined. Based on the numerical values obtained corresponding to the intensity of discoloured zones measured with the peak areas, the calibration curves were determined and the IC50 values were calculated as half of the peak area from the biggest spot that stayedwithin the linearity range area.

Data set [4] concerns SH-SY5Y human neuroblastoma cell line. The experiment in a line: In vitro cytotoxicity test (MTT). Type of data set: cell-based. As to conditions: for cell viability versus control group (saline): 24 h, MTT. The procedure:
The SH-SY5Y human neuroblastoma cell lines (ATCC CRL-2266) were maintained in a1:1 mixture of Eagle’s Minimum Essential Medium and F12 Medium, supplemented with 10% (v/v) of foetal bovine serum. The cells were grown at 37 °C in a humidified incubator with 5% CO2.
The viability of SH-SY5Y cells was evaluated based on the reduction of the yellow tetrazolium salt (3-(4,5-dimethylthiazol-2-yl)-2,5-diphenyltetrazolium bromide or MTT) to the purple formazan crystals by the metabolically active cells. The cells were seeded onto the 96-well plates at the density of 10,000 cells/well, grown overnight and treated with astragaloside IV at 6, 12.5 or 25 μg/mL. Following 24 h of incubation the medium was replaced with 200 µL of fresh medium containing MTT (final concentration 0.5 mg/mL) and the cells were incubated for a further 4 h at 37 °C. The precipitated formazan was dissolved in 100 µL DMSO and the absorbance of the samples was measured at λ = 540 nm. The mean absorbance measured for the control cells, treated with the solvent (saline), was set to 100% cellular viability and used to calculate the percent of viable cells under each experimental condition.

Data set [5] relates to zebrafish (Danio rerio) embryos. The experiment in a line: Zebrafish embryo acute toxicity test (OECD Test No. 236). The data set is classed as in vivo. The procedure: Zebrafish (Danio rerio) embryos were obtained from the Experimental Medicine Centre, Medical University of Lublin, Poland. The animals were kept in an incubator under the appropriate environmental conditions (28.5 ± 0.5 °C, light/dark cycle: 14/10 h) up to 96 h post-fertilization (hpf). For the studies, the National Institutes of Health Guide for the Care and Use of Laboratory Animals (Directive 2010/63/EU) was applied. Thus, for the yolk-feeding larvae up to 120 hpf ethical approval is not required. Nevertheless, all attempts were made to minimize the number of animals and their suffering. Immediately after the experiments, the larval zebrafish were euthanized in […] tricaine solution.
In order to assess the effect of astragaloside IV on the developing organism, the zebrafish embryo acute toxicity test was carried out according to the Organization for Economic Cooperation and Development recommendation for the testing of chemicals (Test No. 236) as described previously. One hour after fertilization, viable, perfectly spherical and completely transparent embryos were selected and transferred to 12 well plates (Sarstedt, Germany). The embryos were randomly divided into control and experimental groups. The embryos were kept in each well until the appropriate stage of development was reached of 96 hpf. Two batches of embryos (3 wells per batch, n = 5–6 per well) were kept in 3 mL of zebrafish E3 medium without treatment, i.e., the control group and that was supplemented with 25 µg/mL of astragaloside IV, i.e., the experimental group. Mortality was assessed after 23, 47, 71 and 95 h of exposition. Hatchability was evaluated after 71 and 95 h of exposition. Morphological abnormalities were scored after 95 h of exposition: heartbeat, heart oedema, yolk sac utilization/necrosis, jaw development, eye size, body axis and haemorrhage. Furthermore, to assess muscle function and performance, the touch-evoked response was performed by slight touching of the tail with metal tweezers. The criteria for the larval response were as follows: absent, decreased and normal, as described in detail in our previous paper.
The obtained data were pooled together. The Chi-squared test or the Fisher’s exact test was used for statistical purposes.

For data set [6] the following is noted: post-mortem brain tissues of mice; cited from earlier work.

Each structure is given as a SMILES string.

On to `CC(C)(O)[C@@H]1CC[C@](C)([C@H]2[C@@H](O)C[C@@]3(C)[C@@H]4C[C@H](O)[C@H]5C(C)(C)[C@@H](O[C@@H]6OC[C@@H](O)[C@H](O)[C@H]6O[C@@H]6O[C@H](CO)[C@@H](O)[C@H](O)[C@H]6O)CC[C@@]56C[C@@]46CC[C@]23C)O1` [A III, Astragaloside III], for which the “s (slope of Soczewiński-Wachtmeister equation)” value in data set [1] is 4.165; in data set [2] it was 5.681. For the same compound, the logkw in data set [1] was 1.807; in data set [2], 2.627. Also, the IC50 in data set [3] is 0.0033 mg.

With `CC(C)(O)[C@@H]1CC[C@](C)([C@H]2[C@@H](O)C[C@@]3(C)[C@@H]4C[C@H](O[C@@H]5O[C@H](CO)[C@@H](O)[C@H](O)[C@H]5O)[C@H]5C(C)(C)[C@@H](O[C@@H]6OC[C@@H](O)[C@H](O)[C@H]6O)CC[C@@]56C[C@@]46CC[C@]23C)O1` [A IV, Astragaloside IV], in data set [1], the “s (slope of Soczewiński-Wachtmeister equation)” value amounted to 3.965 and the logkw is 1.727. Also, in data set [2], the “s (slope of Soczewiński-Wachtmeister equation)” value came to 6.000 and the logkw is reported as 2.668. In data set [3], this compound registered an IC50 of 0.00316 mg. Further, the “cell viability versus control group (saline)” value in data set [4] (25 μg/mL) is recorded as “slightly lower”. The “cell viability versus control group (saline)” value in data set [4] (6 and 12.5 μg/mL) is on record as “slightly higher”. In data set [4] (all analysed conditions (6, 12.5, 25 μg/mL)), the “decrease in cellular SH-SY5Y viability” value is given as “no significant decrease”. For the same compound, the “mortality rate versus control” value in data set [5] (25 µg/mL, 1, 2, 3 and 4 dpf, p > 0.05) was “no difference”. In addition, the larval hatchability result in data set [5] (25 µg/mL, 3- and 4-day-old fish, p > 0.05) is listed as “did not affect”. Further, in data set [5] (25 µg/mL, 95 h exposition), the “scored morphological abnormalities versus control” value is on record as “no difference” and the touch-evoked response result was “normal”. Also, in data set [6], the logBB was 0.49.

Take `CC(=O)OC1C(O)COC(OC2CCC34CC35CCC3(C)C(C6(C)CCC(C(C)(C)O)O6)C(O)CC3(C)C5CC(OC3OC(CO)C(O)C(O)C3O)C4C2(C)C)C1OC(C)=O` (stereo not drawn) [A I, Astragaloside I]: in data set [1], the “s (slope of Soczewiński-Wachtmeister equation)” value is 6.040 and the logkw is listed as 2.713. For the same compound, in data set [2], the “s (slope of Soczewiński-Wachtmeister equation)” value was determined as 5.590 and the logkw is on record as 3.234.

On to `CC(=O)O[C@H]1[C@H](O[C@H]2CC[C@]34C[C@]35CC[C@]3(C)[C@@H]([C@@]6(C)CC[C@@H](C(C)(C)O)O6)[C@@H](O)C[C@@]3(C)[C@@H]5C[C@H](O[C@@H]3O[C@H](CO)[C@@H](O)[C@H](O)[C@H]3O)[C@H]4C2(C)C)OC[C@@H](O)[C@@H]1O` [A II, Astragaloside II], for which, in data set [1], the “s (slope of Soczewiński-Wachtmeister equation)” value is recorded as 4.715 and the logkw is 2.104. In data set [2], the “s (slope of Soczewiński-Wachtmeister equation)” value is reported as 6.570 and the logkw is reported as 3.209. For the same compound, the IC50 in data set [3] is given as 0.00488 mg.
